Experimental findings from patent publication US10745432B2, “Crystal of 6′-sialyllactose sodium salt, and process for producing same” (KYOWA HAKKO BIO CO., LTD., priority 2015, dated 2020) are described below.

Format in all cases: physicochemical
A short description of series [1]: Hygroscopicity: weight change on storage at 30° C., relative humidity 80%. The protocol:
The hygroscopicity of the obtained crystal of 6SL sodium salt 4.6-hydrate and that of a 6SL sodium reagent (amorphous salt, manufactured by Carbosynth Limited) were compared under the following conditions.
Storage condition: 30° C., relative humidity: 80% (apparatus: THE051FA, manufactured by Advantec Toyo Kaisha Ltd.).
Measurement method: After about 100 mg of a sample was weighed with a precision balance, the sample was packed in a glass container and stored under the above-mentioned conditions. Thereafter, the sample was weighed again, and the weight change ratio was calculated.
Incidentally, the weight of the sample at each elapsed time was measured by assuming the weight of each sample at the start of the test to be 100%.

Series [2] is described as follows: Degree of coloration (transmittance at 430 nm) when a heat load at 60° C. was applied. The note with it: for degree of coloration, transmittance T % 430 nm: solution at 100 g/L in terms of anhydrate, 1 cm. How it is done:
Further, with respect to the crystal of 6SL sodium salt 4.6-hydrate and known amorphous 6SL sodium salt, the degree of coloration when a heat load at 60° C. was applied was compared, and the results are shown in Table 4.
The degree of coloration is expressed by transmittance T % 430 nm 100×10^−A (A=Abs: 430 nm, 1 cm), which was obtained by dissolving each substance at 100 g/L in terms of an anhydrate and performing measurement for the solution.

Series [3] can be described thus: pH of aqueous solution of the crystal. To be noted: aqueous solution at 100 g/L in terms of crystal of 6SL sodium salt 4.6-hydrate. The protocol: As for the pH, an aqueous solution at 100 g/L in terms of crystal of 6SL sodium salt 4.6-hydrate was measured.

Turning to `CC(=O)NC1C(O)CC(OCC2OC(OC3C(CO)OC(O)C(O)C3O)C(O)C(O)C2O)(C(=O)[O-])OC1C(O)C(O)CO.[Na+]` (stereo not drawn) [Crystal of sodium salt, 6SL sodium salt 4.6-hydrate], in series [1] (compared with amorphous salt), the “hygroscopicity (in words)” value is “lower hygroscopicity than the amorphous salt”. For the same molecule, the “weight of sample (weight at start of test = 100%)” value came to 100.0% in series [1] (elapsed time 0 hours (start, assumed 100%)); 98.8% in series [1] (elapsed time 0.5 hours); 98.6% in series [1] (elapsed time 2.5 hours); 98.4% in series [1] (elapsed time 8 hours); 98.7% in series [1] (elapsed time 20 hours). Also, in series [2] (compared with known amorphous 6SL sodium salt), the “degree of coloration during storage (in words)” value is listed as “lower than that of known amorphous 6SL sodium salt”. Also, the “degree of coloration, transmittance T % 430 nm” value in series [2] (elapsed time 0 days) is recorded as 99.9%; in series [2] (elapsed time 3 days), 99.8%; in series [2] (elapsed time 6 days), 99.8%. In addition, the pH in series [3] turned out to be 6.23.
As for `CC(=O)NC1C(O)CC(OCC2OC(OC3C(CO)OC(O)C(O)C3O)C(O)C(O)C2O)(C(=O)[O-])OC1C(O)C(O)CO.[Na+]` (stereo not drawn) [Amorphous salt, 6SL sodium salt, reference compound], the “weight of sample (weight at start of test = 100%)” value in series [1] (elapsed time 0.5 hours, sodium salt) was 114.4%; in series [1] (elapsed time 2.5 hours, sodium salt), 119.6%; in series [1] (elapsed time 8 hours, sodium salt) it was 122.9%; in series [1] (elapsed time 20 hours, sodium salt), 124.1%. For the same molecule, the “degree of coloration, transmittance T % 430 nm” value in series [2] (elapsed time 0 days, sodium salt) is recorded as 99.4%; in series [2] (elapsed time 3 days, sodium salt), 99.0%; in series [2] (elapsed time 6 days, sodium salt) it was 98.8%.
